Counter-ions that a name gives are not always drawn.

The test relates to apomorphine climbing. Nature of the test: climbing mice assay (antipsychotic activity). Format: in vivo, mice (CK-1 male). The conditions noted are these: Mus musculus; ip; apomorphine 1.5 mg/kg subcutaneously; climbing score vs control. The procedure: Subject […] male mice (23-27 grams) are group-housed under standard laboratory conditions. The mice are individually placed in wire mesh stick cages (4"×10") and are allowed one hour for adaption and exploration of the new environment.
For evaluation of climbing, 3 readings are taken at 10, 20, and 30 minutes-after apomorphine administration according to the following scale: […]
Mice consistently climbing before the injection of apomorphine are discarded.
With full-developed apomorphine climbing, the animals are hanging on to the cage walls, rather motionless, over long periods of time. By contrast, climbs due to mere motor stimulation usually only last a few seconds.
The climbing scores are individually totaled (maximal score: 6 per mouse over 3 readings) and the total score of the control group (vehicle intraperitoneally-apomorphine subcutaneously) is set to 100%.
Take `COc1cc(C(C)=O)ccc1OC/C=C\CN1CCC(c2noc3cc(F)ccc23)CC1` [(Z)-1-[4-[[4-[4-(6-fluoro-1,2-benzisoxazol-3-yl)-1-piperidinyl]-2-butenyl]oxy]-3-methoxy-phenyl]ethanone]: the ED50 (commonly the dose at which the effect has come halfway, by size or by number of responders) is 0.61 mg/kg.
To `Fc1ccc2c(C3CCN(CCC4COc5ccccc5O4)CC3)noc2c1` (stereo not drawn) [2-[4-(6-fluoro-1,2-benzisoxazol-3-yl)-1-piperidinyl]-ethyl]-1,4-benzodioxan] belongs 0.29 mg/kg; to `O=C(CN1CCC(c2noc3cc(F)ccc23)CC1)N1CCc2ccccc2C1` [1-(1,2,3,4-Tetrahydro-1H-isoquinolin-2-yl)-2-[4-(6-fluoro-1,2-benzosoxazol-3-yl)-1-piperidinyl]-ethanone hydrochloride ethanolate], 6.25 mg/kg.
Then `O=C1c2ccccc2C(O)N1CCN1CCN(c2n[nH]c3cc(F)ccc23)CC1` (stereo not drawn) [2-[2-[4-(6-Fluoro-1H-indazol-3-yl)-1-piperazinyl]ethyl-2,3-dihydro-3-hydroxy-1H-isoindol-1-one hemifumarate], with 2.2 mg/kg; and `Fc1ccc2c(C3CCN(CCN4CCc5ccccc5C4)CC3)noc2c1` [N-12-[4-(6-Fluoro-1,2-benzisoxazol-3-yl)-1-piperidinyl]ethyl-1,2,3,4-tetrahydroisoquinoline difumarate], with 0.23 mg/kg; and `OCCCN1CCC(c2noc3cc(F)ccc23)CC1` [6-Fluoro-3-[1-(3-hydroxypropyl)-4-piperidinyl]-1,2-benzisoxazole], with 4.1 mg/kg.
Then `Fc1ccc2c(c1)CN(CCN1CCN(c3n[nH]c4ccccc34)CC1)C2.O=C(O)/C=C\C(=O)O.O=C(O)/C=C\C(=O)O` [4-(1H-indazol-3-yl)-1-[2-(2,3-dihydro-5-fluoro-1H-isoindol-2-yl)ethyl]piperazine dimaleate], with 1.32 mg/kg.
Compound `Fc1ccc2c(N3CCN(CCCN4Cc5ccccc5C4)CC3)n[nH]c2c1` [4-(6-Fluoro-1H-indazol-3-yl)-1-[3-(2.3-dihydro-1H-isoindol-2-yl)propyl]-piperazine dimaleate] gave an ED50 of 0.46 mg/kg.
Consider `O=C1c2c(F)ccc(F)c2C(=O)N1CCN1CCC(c2noc3cc(F)ccc23)CC1` [N-[2-[4-(6-Fluoro-1,2-benzisoxazol-3-yl)-1-piperidinyl]ethyl]-3,6-difluorophthalimide], for which the 50% effective dose (ED50) amounted to 2.9 mg/kg. This ED50 lies about 6.3-fold higher than the previous one.
To `Cl.O=C1c2ccc(O)cc2C(=O)N1CCN1CCC(c2noc3cc(F)ccc23)CC1` [N-[2-[4-(6-Fluoro-1,2-benzisoxazol-3-yl)-1-piperidinyl]ethyl]-4-hydroxyphthalimide hydrochloride] belongs 1.6 mg/kg.
To `Cl.O=C1c2ccccc2C(=O)N1CCN1CCC(c2noc3cc(F)ccc23)CC1` [N-[2-[4-(6-Fluoro-1,2-benzisoxazol-3-yl)-1-piperidinyl]ethyl]phthalimide h ydrochloride] belongs 0.48 mg/kg.
Then `Cc1ccc2c(c1)CN(CCN1CCN(c3n[nH]c4cc(F)ccc34)CC1)C2` [4-(Fluoro-1H-indazol-3-yl)-1-[2-(2,3-dihydro-5-methyl-1H-isoindol-2-yl)-ethyl]piperazine difumarate], with 0.17 mg/kg; and `Fc1ccc2c(C3CCN(CCN4CCc5ccccc5C4)CC3)n[nH]c2c1.O=C(O)/C=C\C(=O)O.O=C(O)/C=C\C(=O)O` [N-[2-[4-(6-Fluoro-1H-indazol-3-yl)-1-piperidinyl]ethyl]-1,2,3,4-tetrahydroisoquinoline dimaleate], with 0.44 mg/kg; and `Fc1ccc2c(C3CCN(CCCOc4cccc5cnccc45)CC3)noc2c1` [6-Fluoro-3-[1-[3-[(isoquinol-5-yl)oxylpropyl]-4-piperidinyl]-1,2-benzisoxazole sesquifumarate], with 0.172 mg/kg.
`O=C1c2ccccc2CN1CCN1CCC(c2noc3cc(F)ccc23)CC1` [2,3-dihydro-2-[2-[4-(6-Fluoro-1,2-benzisoxazol-3-yl)-1-piperidinyl]ethyl]-1H-isoindol-1-one] returned an ED50 of 1.9 mg/kg.

The values are drawn from patent publication US5556858A, “Cis-2-[(4-heteroaryl-1-piperazinyl)alkyl] hexahydro-1H-isoindole-1,3 (2H)-diones and related compounds and their therapeutic utility” (Hoechst-Roussel Pharmaceuticals, Inc., priority 1995, dated 1996).
